From the supplement of paper PMC10307832

How the values were obtained:
Test in all cases: relative viability (nuclei count vs DMSO), 5 days (fraction); higher = more cells survive
Daporinad = compound: O=C(/C=C/c1cccnc1)NCCCCC1CCN(C(=O)c2ccccc2)CC1 [Daporinad]
Outline: (§1)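 Lung cancer cell lines received five library-drug doses (not always all listed) spaced by √10, pinned on vehicle-anchored 1536-well plates after an overnight stay at 37 °C. Five days later, with no medium change, nuclei were Hoechst-stained, imaged at 4× and counted with MetaXpress. Viability is treated-well nuclei relative to vehicle-well nuclei, as a median across plates. Passing plates had control CV below 25% and at least one doubling.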

R406 = compound: COc1cc(Nc2ncc(F)c(Nc3ccc4c(n3)NC(=O)C(C)(C)O4)n2)cc(OC)c1OC [R406]
Outline: as §1

Daporinad + Pemetrexed = compound: O=C(/C=C/c1cccnc1)NCCCCC1CCN(C(=O)c2ccccc2)CC1 [Daporinad] + Nc1nc2[nH]cc(CCc3ccc(C(=O)N[C@@H](CCC(=O)O)C(=O)O)cc3)c2c(=O)[nH]1 [Pemetrexed] (partner 0.2 µM)
Outline: (§2)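 The day after seeding in 1536-well plates, lung cancer cell lines were treated by pin tool with a single drug, or with a fixed anchor-drug dose together with five library-drug doses (not always all listed) in √10 steps. After 5 days, a combined fix-and-stain solution (final 0.05% Triton X-100, 1% formaldehyde, 1 ug/ml Hoechst) was added. Nuclei counted on 4× images gave relative viability as treated counts over vehicle counts, reported as the median of duplicate plates.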

R406 + OSI-027 = compound: COc1cc(Nc2ncc(F)c(Nc3ccc4c(n3)NC(=O)C(C)(C)O4)n2)cc(OC)c1OC [R406] + COc1cccc2cc(-c3nc([C@H]4CC[C@H](C(=O)O)CC4)n4ncnc(N)c34)[nH]c12 [OSI-027] (partner 0.5 µM)
Outline: as §2

Row | Cell Line | relative viability (Daporinad; 0.0005 µM) | relative viability (Daporinad; 0.001581 µM) | relative viability (Daporinad; 0.005 µM) | relative viability (Daporinad; 0.01581 µM) | relative viability (R406; 0.08 µM) | relative viability (R406; 0.253 µM) | relative viability (R406; 0.8 µM) | relative viability (R406; 2.53 µM) | relative viability (R406; 8 µM) | relative viability (Daporinad + Pemetrexed; first compound 0.0005 µM) | relative viability (Daporinad + Pemetrexed; first compound 0.005 µM) | relative viability (Daporinad + Pemetrexed; first compound 0.01581 µM) | relative viability (R406 + OSI-027; first compound 0.08 µM) | relative viability (R406 + OSI-027; first compound 0.253 µM) | relative viability (R406 + OSI-027; first compound 0.8 µM) | relative viability (R406 + OSI-027; first compound 2.53 µM) | relative viability (R406 + OSI-027; first compound 8 µM) | relative viability (Daporinad + Pemetrexed; first compound 0.001581 µM)
1 | HCC-366 | 1.04 | 1.01 | 1.02 | 1.03 | 1 | 1.1 | 1.03 | 0.432 | 0.565 | 0.187 | 0.152 | 0.104 | 0.938 | 1.02 | 1.04 | 0.0426 | 0.117 | 
2 | HCC-827 | 1.02 | 1.06 | 1.03 | 1.1 | 1.09 | 1.07 | 1.1 | 0.903 | 0.672 | 0.295 | 0.281 | 0.256 | 0.771 | 0.778 | 0.826 | 0.611 | 0.507 | 0.268
3 | HOP-62 | 0.94 | 1.08 | 1.03 | 0.491 | 0.998 | 1.16 | 0.97 | 1.04 | 1.09 | 0.297 | 0.284 | 0.282 | 0.774 | 0.958 | 0.854 | 0.64 | 0.654 | 0.32
4 | IA-LM | 0.888 | 0.896 | 0.968 | 0.859 | 1.07 | 1.19 | 0.957 | 1.05 | 0.913 |  |  |  |  |  |  |  |  | 
5 | LC-2-ad | 0.934 | 1.1 | 1.03 | 0.957 | 0.965 | 0.987 | 1.04 | 0.539 | 0.312 | 0.263 | 0.285 | 0.256 | 0.872 | 0.878 | 0.838 | 0.504 | 0.34 | 0.27
6 | LCLC-97TM1 | 0.948 | 1.15 | 1.07 | 0.941 | 0.885 | 1.18 | 0.964 | 0.804 | 0.632 | 0.17 | 0.165 | 0.185 | 0.461 | 0.586 | 0.618 | 0.221 | 0.215 | 0.2
7 | LCLC-103H | 0.928 | 1.16 | 1.04 | 1 | 0.889 | 1.04 | 0.952 | 0.84 | 0.579 | 0.497 | 0.508 | 0.471 | 0.419 | 0.453 | 0.536 | 0.362 | 0.331 | 0.453
8 | LK-2 | 0.909 | 1.18 | 0.781 | 0.283 | 0.86 | 1.22 | 1.09 | 0.682 | 0.431 | 0.314 | 0.188 | 0.142 | 0.218 | 0.215 | 0.186 | 0.149 | 0.146 | 0.331
9 | LOU-NH91 | 0.996 | 1.05 | 1.14 | 1.24 | 0.916 | 0.963 | 0.928 | 0.512 | 0.576 | 0.383 | 0.509 | 0.482 | 0.728 | 0.714 | 0.651 | 0.448 | 0.429 | 0.359
10 | LU99A | 0.975 | 1.09 | 1.08 | 0.966 | 0.984 | 0.983 | 1.22 | 0.796 | 0.824 | 0.165 | 0.18 | 0.156 | 0.322 | 0.283 | 0.308 | 0.253 | 0.276 | 0.142
11 | LXF-289 | 0.959 | 1.1 | 1.09 | 1.1 | 0.976 | 1.06 | 1.04 | 0.956 | 0.845 | 0.837 | 0.937 | 0.889 | 0.805 | 0.84 | 0.931 | 0.377 | 0.487 | 0.978
12 | NCI-H23 | 1.03 | 1.06 | 0.973 | 0.53 | 0.948 | 1.21 | 1.1 | 0.264 | 0.252 | 0.797 | 0.767 | 0.31 | 0.588 | 0.647 | 0.602 |  | 0.269 | 0.562
13 | NCI-H322M | 0.906 | 1.05 | 0.936 | 0.751 | 0.889 | 0.922 | 0.939 | 0.542 | 0.405 | 0.638 | 0.635 | 0.46 | 0.524 | 0.514 | 0.602 | 0.348 | 0.347 | 0.634
14 | NCI-H358 | 0.877 | 0.929 | 1.03 | 1.06 | 0.935 | 1.04 | 1.03 | 0.339 | 0.246 | 0.199 | 0.183 | 0.185 | 0.752 | 0.678 | 0.893 | 0.208 | 0.118 | 0.168
15 | NCI-H441 | 0.898 | 1.13 | 1.18 | 1.07 | 0.903 | 1.16 | 1.31 | 0.424 | 0.611 | 0.242 | 0.268 | 0.291 | 0.528 | 0.683 | 0.574 | 0.255 | 0.408 | 0.243
16 | NCI-H460 | 0.996 | 1.02 | 0.953 | 1.02 | 0.965 | 1.11 | 1.09 | 0.966 | 0.766 | 0.0681 | 0.0618 | 0.0602 | 0.621 | 0.587 | 1.13 | 0.288 | 0.111 | 0.0617
17 | NCI-H727 | 0.931 | 1.06 | 1.06 | 0.884 | 0.817 | 0.888 | 0.964 | 0.806 | 0.668 |  |  |  | 0.712 | 0.829 | 0.641 | 0.304 | 0.537 | 
18 | NCI-H1299 | 1.01 | 1.04 | 1.04 | 1.04 | 1 | 1.08 | 1.07 | 1.06 | 0.744 |  |  |  |  |  |  |  |  | 
19 | NCI-H1623 | 0.822 | 1.15 | 0.957 | 1.05 | 0.908 | 1.05 | 1.11 | 0.818 | 0.893 |  |  |  | 0.408 | 0.429 | 0.398 | 0.411 | 0.43 | 
20 | NCI-H1703 | 1.03 | 1.2 | 1.2 | 0.934 | 0.966 | 0.924 | 1.21 | 0.238 | 0.172 |  |  |  |  |  |  |  |  | 
